Results taken from patent US20090018134A1, “Compounds - 945” (AstraZeneca AB, priority 2007, published 2009).

These molecules were tested against T1, mTOR (Homo sapiens, UniProt P42345) (assay: In Vitro mTOR Kinase Assay (Echo), Test (a)(ii)). Details: read-out: mTOR Kinase Assay (Echo).
T1 construct: FLAG; made in house
Assay type: biochemical
Procedure, shortened: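 Enzyme: HEK293-expressed, FLAG-purified mTOR C-terminal fragment (aa 1362-2549). Rxn 2 h RT with biotinylated peptide, stopped with EDTA 50 mM/BSA/Tris pH 7.4. Detection: T389 phospho-antibody AlphaScreen, 680 nm excitation. IC50.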

T1 sequence (P42345 1362-2549): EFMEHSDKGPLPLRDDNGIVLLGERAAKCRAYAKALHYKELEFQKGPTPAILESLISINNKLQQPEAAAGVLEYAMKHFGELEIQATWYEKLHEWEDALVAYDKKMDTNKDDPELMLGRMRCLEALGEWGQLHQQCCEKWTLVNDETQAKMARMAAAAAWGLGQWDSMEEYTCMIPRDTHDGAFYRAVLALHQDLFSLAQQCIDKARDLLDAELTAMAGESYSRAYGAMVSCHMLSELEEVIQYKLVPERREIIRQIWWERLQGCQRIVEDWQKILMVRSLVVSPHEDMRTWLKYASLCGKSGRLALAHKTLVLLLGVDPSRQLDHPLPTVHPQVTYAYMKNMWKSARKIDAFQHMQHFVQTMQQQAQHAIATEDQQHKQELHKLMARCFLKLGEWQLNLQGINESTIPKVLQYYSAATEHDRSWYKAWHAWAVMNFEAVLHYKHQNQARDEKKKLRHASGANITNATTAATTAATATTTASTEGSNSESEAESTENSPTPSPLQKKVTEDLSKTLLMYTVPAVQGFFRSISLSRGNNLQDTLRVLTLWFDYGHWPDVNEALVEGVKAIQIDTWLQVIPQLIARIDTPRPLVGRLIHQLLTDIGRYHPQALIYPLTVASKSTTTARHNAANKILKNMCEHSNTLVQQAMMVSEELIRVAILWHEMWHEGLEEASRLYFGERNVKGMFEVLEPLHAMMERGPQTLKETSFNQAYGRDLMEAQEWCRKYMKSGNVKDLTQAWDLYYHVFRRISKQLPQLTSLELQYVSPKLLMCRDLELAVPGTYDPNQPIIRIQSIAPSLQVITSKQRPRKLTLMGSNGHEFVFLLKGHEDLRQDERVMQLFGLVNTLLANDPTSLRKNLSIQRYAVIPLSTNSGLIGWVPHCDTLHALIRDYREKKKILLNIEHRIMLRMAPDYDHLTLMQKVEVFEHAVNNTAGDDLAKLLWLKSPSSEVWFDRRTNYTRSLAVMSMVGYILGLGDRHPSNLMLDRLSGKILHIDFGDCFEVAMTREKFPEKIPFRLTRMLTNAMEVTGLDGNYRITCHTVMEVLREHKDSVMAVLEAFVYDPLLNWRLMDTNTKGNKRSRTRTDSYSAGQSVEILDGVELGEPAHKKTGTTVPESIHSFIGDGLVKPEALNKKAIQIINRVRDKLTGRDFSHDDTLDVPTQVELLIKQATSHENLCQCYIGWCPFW

SMILES | IC50
Cc1nc(S(=O)(=O)C2(c3cc(N4CCOC[C@@H]4C)nc(-c4ccc(NC(=O)Nc5cnn(C)c5)cc4)n3)CC2)sc1C [Example 81, 1-[4-[4-[1-[(4,5-Dimethyl-1,3-thiazol-2-yl)sulfonyl]cyclopropyl]-6-[(3S)-3-methylmorpholin-4-yl]pyrimidin-2-yl]phenyl]-3-(1-methylpyrazol-4-yl)urea] | 8.13 nM

Same assay, conditions: table of enzyme assay Test (a)(ii); read-out: Test (a)(ii) IC50

SMILES | IC50
Cc1nc(C)c(S(=O)(=O)C2(c3cc(N4CCOC[C@@H]4C)nc(-c4ccc(NC(=O)Nc5cnn(C)c5)cc4)n3)CC2)s1 [Example 78f, 1-[4-[4-[1-[(2,4-dimethyl-1,3-thiazol-5-yl)sulfonyl]cyclopropyl]-6-[(3S)-3-methylmorpholin-4-yl]pyrimidin-2-yl]phenyl]-3-(1-methylpyrazol-4-yl)urea] | 29.1 nM
C[C@H]1COCCN1c1cc(C2(S(=O)(=O)CCC(C)(C)O)CC2)nc(-c2ccc(NC(=O)NC3CC3)cc2)n1 [Example 79, 3-Cyclopropyl-1-[4-[4-[1-(3-hydroxy-3-methylbutyl)sulfonylcyclopropyl]-6-[(3S)-3-methylmorpholin-4-yl]pyrimidin-2-yl]phenyl]urea] | 18.6 nM
CNC(=O)Nc1ccc(-c2nc(N3CCOC[C@@H]3C)cc(C3(S(=O)(=O)CCC(C)(C)O)CC3)n2)cc1 [Example 79a, 1-[4-[4-[1-(3-hydroxy-3-methylbutyl)sulfonylcyclopropyl]-6-[(3S)-3-methylmorpholin-4-yl]pyrimidin-2-yl]phenyl]-3-methylurea] | 22.2 nM
C[C@H]1COCCN1c1cc(C2(S(=O)(=O)CCC(C)(C)O)CC2)nc(-c2ccc(NC(=O)NCCF)cc2)n1 [Example 79d, 3-(2-fluoroethyl)-1-[4-[4-[1-(3-hydroxy-3-methylbutyl)sulfonylcyclopropyl]-6-[(3S)-3-methylmorpholin-4-yl]pyrimidin-2-yl]phenyl]urea] | 16.1 nM
C[C@H]1COCCN1c1cc(C2(S(=O)(=O)CCC(C)(C)O)CC2)nc(-c2ccc(NC(=O)Nc3cnn(C)c3)cc2)n1 [Example 79e, 1-[4-[4-[1-(3-hydroxy-3-methylbutyl)sulfonylcyclopropyl]-6-[(3S)-3-methylmorpholin-4-yl]pyrimidin-2-yl]phenyl]-3-(1-methylpyrazol-4-yl)urea] | 25.9 nM
CCNC(=O)Nc1ccc(-c2nc(N3CCOC[C@@H]3C)cc(C3(S(=O)(=O)CCC(C)(C)O)CC3)n2)cc1 [Example 79f, 1-ethyl-3-[4-[4-[1-(3-hydroxy-3-methylbutyl)sulfonylcyclopropyl]-6-[(3S)-3-methylmorpholin-4-yl]pyrimidin-2-yl]phenyl]urea] | 39.8 nM
Cc1nc(S(=O)(=O)C2(c3cc(N4CCOC[C@@H]4C)nc(-c4ccc(NC(=O)NCC(F)F)cc4)n3)CC2)sc1C [Example 80, 3-(2,2-Difluoroethyl)-1-[4-[4-[1-[(4,5-dimethyl-1,3-thiazol-2-yl)sulfonyl]cyclopropyl]-6-[(3S)-3-methylmorpholin-4-yl]pyrimidin-2-yl]phenyl]urea] | 19.7 nM
Cc1nc(S(=O)(=O)C2(c3cc(N4CCOC[C@@H]4C)nc(-c4ccc(NC(=O)NC5CC5)cc4)n3)CC2)sc1C [Example 80b, 3-cyclopropyl-1-[4-[4-[1-[(4,5-dimethyl-1,3-thiazol-2-yl)sulfonyl]cyclopropyl]-6-[(3S)-3-methylmorpholin-4-yl]pyrimidin-2-yl]phenyl]urea] | 10.3 nM
CNC(=O)Nc1ccc(-c2nc(N3CCOC[C@@H]3C)cc(C3(S(=O)(=O)c4nc(C)c(C)s4)CC3)n2)cc1 [Example 80d, 1-[4-[4-[1-[(4,5-dimethyl-1,3-thiazol-2-yl)sulfonyl]cyclopropyl]-6-[(3S)-3-methylmorpholin-4-yl]pyrimidin-2-yl]phenyl]-3-methylurea] | 9.51 nM
CCNC(=O)Nc1ccc(-c2nc(N3CCOC[C@@H]3C)cc(C3(S(=O)(=O)c4nc(C)c(C)s4)CC3)n2)cc1 [Example 80e, 3-[4-[4-[1-[(4,5-dimethyl-1,3-thiazol-2-yl)sulfonyl]cyclopropyl]-6-[(3S)-3-methylmorpholin-4-yl]pyrimidin-2-yl]phenyl]-1-ethylurea] | 14.3 nM
Cc1nc(S(=O)(=O)C2(c3cc(N4CCOC[C@@H]4C)nc(-c4ccc(NC(=O)Nc5cnn(C)c5)cc4)n3)CC2)sc1C [Example 81, 1-[4-[4-[1-[(4,5-Dimethyl-1,3-thiazol-2-yl)sulfonyl]cyclopropyl]-6-[(3S)-3-methylmorpholin-4-yl]pyrimidin-2-yl]phenyl]-3-(1-methylpyrazol-4-yl)urea] | 13.7 nM

Results, then the molecule that gave them:

IC50 | SMILES
23.9 nM | Cc1nc(C)c(S(=O)(=O)C2(c3cc(N4CCOC[C@@H]4C)nc(-c4ccc(NC(=O)NCCF)cc4)n3)CC2)s1 [Example 78e, 1-[4-[4-[1-[(2,4-dimethyl-1,3-thiazol-5-yl)sulfonyl]cyclopropyl]-6-[(3S)-3-methylmorpholin-4-yl]pyrimidin-2-yl]phenyl]-3-(2-fluoroethyl)urea]
10.9 nM | C[C@H]1COCCN1c1cc(C2(S(=O)(=O)CCC(C)(C)O)CC2)nc(-c2ccc(NC(=O)NCCO)cc2)n1 [Example 79b, 3-(2-hydroxyethyl)-1-[4-[4-[1-(3-hydroxy-3-methylbutyl)sulfonylcyclopropyl]-6-[(3S)-3-methylmorpholin-4-yl]pyrimidin-2-yl]phenyl]urea]
14.6 nM | Cc1nc(S(=O)(=O)C2(c3cc(N4CCOC[C@@H]4C)nc(-c4ccc(NC(=O)NCCF)cc4)n3)CC2)sc1C [Example 80a, 1-[4-[4-[1-[(4,5-dimethyl-1,3-thiazol-2-yl)sulfonyl]cyclopropyl]-6-[(3S)-3-methylmorpholin-4-yl]pyrimidin-2-yl]phenyl]-3-(2-fluoroethyl)urea]
9.21 nM | Cc1nc(S(=O)(=O)C2(c3cc(N4CCOC[C@@H]4C)nc(-c4ccc(NC(=O)NCCO)cc4)n3)CC2)sc1C [Example 80c, 1-[4-[4-[1-[(4,5-dimethyl-1,3-thiazol-2-yl)sulfonyl]cyclopropyl]-6-[(3S)-3-methylmorpholin-4-yl]pyrimidin-2-yl]phenyl]-3-(2-hydroxyethyl)urea]
9.39 nM | CNC(=O)Nc1ccc(-c2nc(N3CCOC[C@@H]3C)cc(C3(S(=O)(=O)c4ccc(F)cc4C)CC3)n2)cc1 [Example 82, 1-[4-[4-[1-(4-Fluoro-2-methylphenyl)sulfonylcyclopropyl]-6-[(3S)-3-methylmorpholin-4-yl]pyrimidin-2-yl]phenyl]-3-methylurea]
26.5 nM | Cc1cc(F)ccc1S(=O)(=O)C1(c2cc(N3CCOC[C@@H]3C)nc(-c3ccc(NC(=O)NC4CC4)cc3)n2)CC1 [Example 82a, 3-cyclopropyl-1-[4-[4-[1-(4-fluoro-2-methylphenyl)sulfonylcyclopropyl]-6-[(3S)-3-methylmorpholin-4-yl]pyrimidin-2-yl]phenyl]urea]
7.57 nM | Cc1cc(F)ccc1S(=O)(=O)C1(c2cc(N3CCOC[C@@H]3C)nc(-c3ccc(NC(=O)NCCO)cc3)n2)CC1 [Example 82b, 1-[4-[4-[1-(4-fluoro-2-methylphenyl)sulfonylcyclopropyl]-6-[(3S)-3-methylmorpholin-4-yl]pyrimidin-2-yl]phenyl]-3-(2-hydroxyethyl)urea]
18.5 nM | Cc1cc(F)ccc1S(=O)(=O)C1(c2cc(N3CCOC[C@@H]3C)nc(-c3ccc(NC(=O)NCCF)cc3)n2)CC1 [Example 82c, 3-(2-fluoroethyl)-1-[4-[4-[1-(4-fluoro-2-methylphenyl)sulfonylcyclopropyl]-6-[(3S)-3-methylmorpholin-4-yl]pyrimidin-2-yl]phenyl]urea]
24.3 nM | Cc1cc(F)ccc1S(=O)(=O)C1(c2cc(N3CCOC[C@@H]3C)nc(-c3ccc(NC(=O)NCC(F)F)cc3)n2)CC1 [Example 82d, 3-(2,2-difluoroethyl)-1-[4-[4-[1-(4-fluoro-2-methylphenyl)sulfonylcyclopropyl]-6-[(3S)-3-methylmorpholin-4-yl]pyrimidin-2-yl]phenyl]urea]
